Data from ChEMBL document CHEMBL4184084, “Discovery of Mcl-1 inhibitors based on a thiazolidine-2,4-dione scaffold” (Bioorg Med Chem Lett, 2018).

molecular target: Induced myeloid leukemia cell differentiation protein Mcl-1 (Homo sapiens, UniProt Q07820); test: Inhibition of FITC-labeled Bak-BH3 peptide binding to MCL1 (172 to 371 residues) (unknown origin) by fluorescence polarization competition assay
Sequence (Q07820 whole entry, the tested form may be a part): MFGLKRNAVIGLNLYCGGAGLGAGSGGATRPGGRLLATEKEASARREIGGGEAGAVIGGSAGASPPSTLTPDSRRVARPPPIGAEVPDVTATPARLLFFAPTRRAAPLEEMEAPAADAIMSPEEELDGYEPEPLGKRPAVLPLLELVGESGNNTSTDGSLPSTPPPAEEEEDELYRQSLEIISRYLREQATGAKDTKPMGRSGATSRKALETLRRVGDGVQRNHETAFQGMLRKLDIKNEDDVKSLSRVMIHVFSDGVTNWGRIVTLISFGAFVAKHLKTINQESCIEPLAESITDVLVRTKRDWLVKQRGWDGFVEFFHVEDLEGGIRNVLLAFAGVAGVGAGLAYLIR

Q: How did the Ki turn out when `Cc1cc(Oc2ccc(/C=C3\SC(=O)N([C@@H](Cc4ccccc4)C(=O)O)C3=O)cc2)cc(C)c1Cl` was run?
A: 155 nM

Q: `Cc1cc(Oc2ccc(CC3SC(=O)N(CC(=O)O)C3=O)cc2)cc(C)c1Cl` (configuration not stated) was tested. Which Ki did it give?
A: 10200 nM

Q: `Cc1cc(Oc2ccc(/C=C3\SC(=O)N([C@@H](CC(C)C)C(=O)O)C3=O)cc2)cc(C)c1Cl` was tested. Which Ki did it give?
A: 419 nM

Q: `Cc1cc(Oc2ccc(/C=C3\SC(=O)N([C@@H](CC(C)C)C(=O)O)C3=O)cc2Br)cc(C)c1Cl` was tested. Which Ki did it give?
A: 791 nM

Q: `CC(C)(C)c1ccc(/C=C2\SC(=O)N([C@@H](Cc3ccccc3)C(=O)O)C2=O)cc1` was tested. Which Ki did it give?
A: 845 nM

Q: `CC(C)C[C@@H](C(=O)O)N1C(=O)S/C(=C\c2ccc(Oc3ccccc3)cc2)C1=O` was tested. Which Ki did it give?
A: 12700 nM

Q: How did the Ki turn out when `Cc1cc(Oc2ccc(/C=C3\SC(=O)N([C@H](C(=O)O)C(C)C)C3=O)cc2)cc(C)c1Cl` was run?
A: 1190 nM

Q: For `CC(C)C[C@@H](C(=O)O)N1C(=O)S/C(=C\c2ccc(O)cc2)C1=O`, which Ki is on record?
A: > 100000 nM

Q: How did the Ki turn out when `Cc1cc(Oc2ccc(/C=C3\SC(=O)NC3=O)cc2)cc(C)c1Cl` was run?
A: > 100000 nM

Q: How did the Ki turn out when `Cc1cc(Oc2ccc(/C=C3\SC(=O)N([C@@H](CC(C)C)C(N)=O)C3=O)cc2)cc(C)c1Cl` was run?
A: > 100000 nM

Q: `CC(C)C[C@@H](C(=O)O)N1C(=O)S/C(=C\c2ccc(C(C)(C)C)cc2)C1=O` was tested. Which Ki did it give?
A: 2220 nM

Q: `CC(C)C[C@@H](C(=O)O)N1C(=O)S/C(=C\c2cccc(Br)c2)C1=O` was tested. Which Ki did it give?
A: 2130 nM

Q: How did the Ki turn out when `Cc1cc(Oc2ccc(/C=C3\SC(=O)N(CC(=O)O)C3=O)cc2)cc(C)c1Cl` was run?
A: 2340 nM

Q: Which Ki does the source give for `Cc1cc(Oc2ccc(/C=C3\SC(=O)N([C@@H](C)C(=O)O)C3=O)cc2)cc(C)c1Cl` here?
A: 1940 nM

Q: How did the Ki turn out when `COC(=O)[C@H](CC(C)C)N1C(=O)S/C(=C\c2ccc(Oc3cc(C)c(Cl)c(C)c3)cc2)C1=O` was run?
A: > 100000 nM

Q: `Cc1cc(Oc2ccc(/C=C3\SC(=O)N([C@H](C)C(=O)O)C3=O)cc2)cc(C)c1Cl` was tested. Which Ki did it give?
A: 2780 nM

Q: `CC(C)C[C@@H](C(=O)O)N1C(=O)S/C(=C\c2ccc(Br)cc2)C1=O` was tested. Which Ki did it give?
A: 8780 nM

Q: `CC(C)C[C@@H](C(=O)O)N1C(=O)S/C(=C\c2ccccc2)C1=O` was tested. Which Ki did it give?
A: > 100000 nM

Q: For `Cc1cc(Oc2ccc(/C=C3\SC(=O)N([C@H](Cc4ccccc4)C(=O)O)C3=O)cc2)cc(C)c1Cl`, which Ki is on record?
A: 878 nM

Q: Which Ki does the source give for `O=C(O)[C@H](Cc1ccccc1)N1C(=O)S/C(=C\c2cccc(Br)c2)C1=O` here?
A: 290 nM

Q: `Cc1cc(Oc2ccc(/C=C3\SC(=O)N([C@H](CC(C)C)C(=O)O)C3=O)cc2)cc(C)c1Cl` was tested. Which Ki did it give?
A: 1000 nM

molecular target: Bcl-2-like protein 1 (Homo sapiens, UniProt Q07817); test: Inhibition of FITC-labeled Bak-BH3 peptide binding to Bcl-XL (2 to 212 residues) (unknown origin) by fluorescence polarization assay
Sequence (Q07817 whole entry, the tested form may be a part): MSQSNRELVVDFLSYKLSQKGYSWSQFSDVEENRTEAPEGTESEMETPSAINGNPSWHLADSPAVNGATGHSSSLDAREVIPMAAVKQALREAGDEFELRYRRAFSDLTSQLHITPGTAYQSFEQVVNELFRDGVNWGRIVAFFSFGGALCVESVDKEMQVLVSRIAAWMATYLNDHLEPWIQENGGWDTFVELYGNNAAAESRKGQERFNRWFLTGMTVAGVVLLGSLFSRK

Q: `Cc1cc(Oc2ccc(/C=C3\SC(=O)N([C@@H](Cc4ccccc4)C(=O)O)C3=O)cc2)cc(C)c1Cl` was tested. Which Ki did it give?
A: 90 nM
